Data: the NIST ThermoML archive (doi:10.1016/j.fluid.2010.03.042)
Numbers after ± are expanded uncertainties.

Experiment: xn = mol fraction of the nth substance listed
Details: Liquid, Vibrating tube method

For CCCCO [butan-1-ol] + O=C=O, which mass density (313.22 K, x2 = 0.1294) is on record?
The mass density was 806.8 ± 0.5 kg/m3.

And the mass density (313.22 K, x2 = 0.2204)?
The mass density was 816.8 ± 0.6 kg/m3.

What about the mass density (313.22 K, x2 = 0.2354) of the same molecule?
The mass density was 818.6 ± 0.7 kg/m3.

What about the mass density (313.22 K, x2 = 0.3409) of the same molecule?
Its mass density is 823.7 ± 0.5 kg/m3.

And the mass density (313.22 K, x2 = 0.4311)?
Its mass density is 826.1 ± 0.4 kg/m3.

What about the mass density (313.22 K, x2 = 0.5847) of the same molecule?
Its mass density is 827.7 ± 0.9 kg/m3.

And the mass density (313.22 K, x2 = 0.8543)?
The mass density was 797 ± 0.4 kg/m3.

What about the mass density (363.17 K, x2 = 0.1186) of the same molecule?
Its mass density is 711.3 ± 1.6 kg/m3.

And the mass density (363.17 K, x2 = 0.1985)?
Its mass density is 762 ± 1.3 kg/m3.

And the mass density (363.17 K, x2 = 0.2821)?
Its mass density is 764.7 ± 0.4 kg/m3.

And the mass density (363.17 K, x2 = 0.3623)?
Its mass density is 765.5 ± 0.4 kg/m3.

What about the mass density (363.17 K, x2 = 0.4604) of the same molecule?
Its mass density is 765.5 ± 0.4 kg/m3.

And the mass density (363.17 K, x2 = 0.5637)?
The mass density was 760.6 ± 0.8 kg/m3.

What about the mass density (363.17 K, x2 = 0.6867) of the same molecule?
Its mass density is 750.9 ± 3 kg/m3.

And the mass density (363.17 K, x2 = 0.7105)?
The mass density was 745.8 ± 4.9 kg/m3.

And the mass density (363.17 K, x2 = 0.7597)?
The mass density was 726.6 ± 5.9 kg/m3.

What does the source list for CCC(C)O (centres undefined) [butan-2-ol] + O=C=O?
mass density (313.21 K, x2 = 0.166): 795.6 ± 0.8 kg/m3; mass density (313.21 K, x2 = 0.2247): 807.4 ± 0.6 kg/m3; mass density (313.21 K, x2 = 0.3339): 813.7 ± 0.5 kg/m3; mass density (313.21 K, x2 = 0.435): 816.8 ± 0.5 kg/m3; mass density (313.21 K, x2 = 0.5177): 818.9 ± 0.4 kg/m3; mass density (313.21 K, x2 = 0.6282): 818.5 ± 0.4 kg/m3; mass density (313.21 K, x2 = 0.7453): 817.2 ± 0.5 kg/m3; mass density (313.21 K, x2 = 0.7457): 817.5 ± 0.5 kg/m3; mass density (313.21 K, x2 = 0.8604): 815.4 ± 0.6 kg/m3; mass density (313.21 K, x2 = 0.9197): 813.8 ± 0.7 kg/m3; mass density (333.12 K, x2 = 0.137): 771.6 ± 0.5 kg/m3; mass density (333.12 K, x2 = 0.2174): 782.3 ± 0.5 kg/m3; mass density (333.12 K, x2 = 0.3029): 786.1 ± 0.5 kg/m3; mass density (333.12 K, x2 = 0.3944): 790.2 ± 0.5 kg/m3; mass density (333.12 K, x2 = 0.4533): 791.8 ± 0.4 kg/m3; mass density (333.12 K, x2 = 0.5642): 790.7 ± 0.4 kg/m3; mass density (333.12 K, x2 = 0.6485): 787.2 ± 0.8 kg/m3; mass density (333.12 K, x2 = 0.7937): 775.5 ± 2.3 kg/m3; mass density (333.12 K, x2 = 0.8376): 758.6 ± 12 kg/m3; mass density (363.06 K, x2 = 0.1273): 743.6 ± 0.4 kg/m3; mass density (363.06 K, x2 = 0.1978): 746.7 ± 0.4 kg/m3; mass density (363.06 K, x2 = 0.2588): 747.7 ± 0.4 kg/m3; mass density (363.06 K, x2 = 0.2793): 748.3 ± 0.5 kg/m3; mass density (363.06 K, x2 = 0.3584): 743.8 ± 0.6 kg/m3; mass density (363.06 K, x2 = 0.4344): 738.3 ± 1.6 kg/m3; mass density (363.06 K, x2 = 0.5565): 709.3 ± 3.9 kg/m3; mass density (363.06 K, x2 = 0.6978): 647.2 ± 6 kg/m3; mass density (363.06 K, x2 = 0.7871): 611.7 ± 6.3 kg/m3
